Values after ≈ are worked out from the molar mass of the structure shown. Where two headings read alike, the source gives them in different places.
Columns and labels:
[1] = tested on: K. pneumoniae NVT1001 strains with aminoglycoside resistance plasmids; assay: Etest MIC of aminoglycosides, aminoglycoside-modifying enzyme or 16S rRNA methylase (Table 13); type: cell-based, Klebsiella pneumoniae; settings: for effects on the MIC / resistance: production of 16S rRNA methylase, ArmA and RmtB
Protocol: DNA fragments of the resistance genes along with their flanking regions were amplified from clinical plasmids via PCR with specific primer pairs. The resulting PCR fragments were digested and then cloned into the plasmid pACYC177 or pACYC184. The resulting plasmids were then transformed into K. pneumoniae strain NVT1001 via electroporation. The recombinant bacteria were plated onto LB agar plates containing kanamycin (50 mg/L) or chloramphenicol (50 mg/L), and the presence of the cloned gene was confirmed via PCR and DNA sequencing.
(§1) The MICs of antibiotics were determined using the Etest (Biodisk AB, Sweden) according to the manufacturer's instructions. The MICs from the Etest, which fall between standard two-fold dilutions, were rounded up to the next highest two-fold value. The MICs of ceftazidime and cefotaxime against K. pneumoniae NVT1001 harbouring the pACYC177 plasmid with blaOXA-48 were further determined using a broth microdilution test according to the recommendations of the CLSI,^25 and the results were interpreted according to the breakpoints established by the CLSI in 2017.^25 Meanwhile, due to the lack of CLSI breakpoints in 2016 and 2017, the results for cephalothin were interpreted according to the breakpoints established by the CLSI in 2015,^26 and the results for moxifloxacin were interpreted according to the breakpoints established by the EUCAST in 2017.^27

[2] = tested on: A. baumannii KW1 strains with aminoglycoside resistance plasmids; assay: Etest MIC of aminoglycosides, aminoglycoside-modifying enzyme or 16S rRNA methylase (Table 19); type: cell-based, Acinetobacter baumannii; settings: for effects on the MIC / resistance: production of 16S rRNA methylase, ArmA; for effects on the MIC: production of aminoglycoside-modifying enzymes
Protocol: DNA fragments of the resistance genes along with their flanking regions were amplified from clinical plasmids via PCR with specific primer pairs. The resulting PCR fragments were digested and then cloned into the plasmid pYMAb5 or pYMAb5Tc. The resulting plasmids were then transformed into A. baumannii KW1 via electroporation.
as §1

[3] = tested on: K. pneumoniae NVT1001 and its ΔompK35/36 and/or ΔramR mutants; assay: Etest MIC, OmpK35/36 loss and AcrAB-TolC overexpression (ΔramR) strains (Table 6); type: cell-based, Klebsiella pneumoniae; settings: Klebsiella pneumoniae
Protocol: as §1

[4] = NVT1001, no supplemental plasmid
[5] = NVT1001 with AAC(3)-IId on pACYC184
[6] = NVT1001 with AAC(3)-IVa on pACYC184
[7] = NVT1001 with AAC(6′)-Ib-cr on pACYC184
[8] = NVT1001 with ANT(2″)-Ia on pACYC184
[9] = NVT1001 with ANT(3″)-Ia on pACYC184
[10] = NVT1001 with APH(3′)-IIa on pACYC184
[11] = NVT1001 with APH(3′)-Ia on pACYC184
[12] = NVT1001 with StrA-StrB on pACYC184
[13] = KW1 with AAC(3)-IIa on pYMAb5Tc
[14] = KW1 with ANT(2”)-Ia on pYMAb5Tc
[15] = KW1 with ANT(3”)-Ia on pYMAb5Tc
[16] = KW1 with APH(3')-Ia on pYMAb5Tc
[17] = KW1 with APH(3')-VIa on pYMAb5Tc
[18] = KW1 with shuttle vector pYMAb5Tc
[19] = ΔramRΔ35/36, ΔramRΔompK35/36 mutant

| SMILES | MIC [1, 4] | MIC [1, 5] | MIC [1, 6] | MIC [1, 7] | MIC [1, 8] | MIC [1, 9] | MIC [1, 10] | MIC [1, 11] | MIC ([1]; NVT1001 with ArmA on pACYC184) | MIC ([1]; NVT1001 with RmtB on pACYC184) | MIC [1, 12] | MIC ([2]; KW1, no supplemental plasmid) | MIC [2, 13] | MIC [2, 14] | MIC [2, 15] | MIC [2, 16] | MIC [2, 17] | MIC ([2]; KW1 with ArmA on pYMAb5Tc) | MIC [2, 18] | MIC ([3]; WT, NVT1001, read-out: MIC) | also measured |
| --- | --- | --- | --- | --- | --- | --- | --- | --- | --- | --- | --- | --- | --- | --- | --- | --- | --- | --- | --- | --- | --- |
| CN[C@@H]1[C@H](O)[C@H](NC)[C@H]2O[C@@]3(O)C(=O)C[C@@H](C)O[C@H]3O[C@@H]2[C@H]1O [SPT] | 16 µg/mL | 16 µg/mL | 16 µg/mL | 16 µg/mL | 16 µg/mL | >1024 µg/mL | 16 µg/mL | 16 µg/mL | 16 µg/mL | 16 µg/mL | 16 µg/mL | 24 µg/mL | 24 µg/mL | 24 µg/mL | 192 µg/mL | 24 µg/mL | 24 µg/mL | 24 µg/mL | 24 µg/mL |  |  |
| CN[C@@H]1[C@H](O)[C@H](NC)[C@H]2O[C@@]3(O)C(=O)C[C@@H](C)O[C@H]3O[C@@H]2[C@H]1O [Spectinomycin] |  |  |  |  |  |  |  |  |  |  |  |  |  |  |  |  |  |  |  | 16 µg/mL (≈ 48.1 µM) | MIC ([3]; Δ35, ΔompK35 mutant): 16 µg/mL (≈ 48.1 µM); MIC ([3]; Δ35/36, ΔompK35/36 mutant): 16 µg/mL (≈ 48.1 µM); MIC ([3]; Δ36, ΔompK36 mutant): 16 µg/mL (≈ 48.1 µM); MIC ([3]; ΔramR mutant): 16 µg/mL (≈ 48.1 µM); MIC ([3]; ΔramRΔ35, ΔramRΔompK35 mutant): 16 µg/mL (≈ 48.1 µM); MIC [3, 19]: 16 µg/mL (≈ 48.1 µM); MIC ([3]; ΔramRΔ36, ΔramRΔompK36 mutant): 16 µg/mL (≈ 48.1 µM); effects on the MIC / resistance [1]: not associated with observable effects; effects on the MIC / resistance [2]: not associated with increase effects |
| NCC[C@H](O)C(=O)N[C@@H]1C[C@H](N)[C@@H](O[C@H]2O[C@H](CN)[C@@H](O)[C@H](O)[C@H]2O)[C@H](O)[C@H]1O[C@H]1O[C@H](CO)[C@@H](O)[C@H](N)[C@H]1O [AMK] | 2 µg/mL | 2 µg/mL | 2 µg/mL | 8 µg/mL | 2 µg/mL | 2 µg/mL | 2 µg/mL | 2 µg/mL | >256 µg/mL | >256 µg/mL | 2 µg/mL | 2 µg/mL | 2 µg/mL | 2 µg/mL | 2 µg/mL | 2 µg/mL | 2 µg/mL | >256 µg/mL | 2 µg/mL |  |  |
| [H]/N=C(/N)N[C@H]1[C@H](O)[C@@H](O)[C@H](O[C@@H]2O[C@@H](C)[C@](O)(C=O)[C@H]2O[C@@H]2O[C@@H](CO)[C@H](O)[C@@H](O)[C@@H]2NC)[C@@H](N/C(N)=N\[H])[C@@H]1O [Streptomycin] |  |  |  |  |  |  |  |  |  |  |  |  |  |  |  |  |  |  |  | 2 µg/mL (≈ 3.44 µM) | MIC ([3]; Δ35, ΔompK35 mutant): 4 µg/mL (≈ 6.88 µM); MIC ([3]; Δ35/36, ΔompK35/36 mutant): 4 µg/mL (≈ 6.88 µM); MIC ([3]; Δ36, ΔompK36 mutant): 4 µg/mL (≈ 6.88 µM); MIC ([3]; ΔramR mutant): 2 µg/mL (≈ 3.44 µM); MIC ([3]; ΔramRΔ35, ΔramRΔompK35 mutant): 2 µg/mL (≈ 3.44 µM); MIC [3, 19]: 4 µg/mL (≈ 6.88 µM); MIC ([3]; ΔramRΔ36, ΔramRΔompK36 mutant): 4 µg/mL (≈ 6.88 µM); effects on the MIC / resistance [1]: not associated with observable effects; effects on the MIC / resistance [2]: not associated with increase effects; effects on the MIC [2]: no increase effects |
| NC[C@@H]1O[C@@H](O[C@H]2[C@H](O)[C@@H](O[C@H]3O[C@H](CO)[C@@H](O)[C@H](N)[C@H]3O)[C@H](N)C[C@@H]2N)[C@@H](O)[C@H](O)[C@H]1O [KAN] | 2 µg/mL | 4 µg/mL | 8 µg/mL | 32 µg/mL | >256 µg/mL | 2 µg/mL | >256 µg/mL | >256 µg/mL | >256 µg/mL | >256 µg/mL | 2 µg/mL | 2 µg/mL | 2 µg/mL | 4 µg/mL | 2 µg/mL | 16 µg/mL | 16 µg/mL | >256 µg/mL | 2 µg/mL |  |  |
| CN[C@@H]1[C@H](O[C@H]2[C@H](O[C@H]3[C@H](O)[C@@H](O)[C@H](N=C(N)N)[C@@H](O)[C@@H]3N=C(N)N)O[C@@H](C)[C@]2(O)C=O)O[C@@H](CO)[C@H](O)[C@H]1O [STR] | 2 µg/mL | 2 µg/mL | 2 µg/mL | 2 µg/mL | 2 µg/mL | 16 µg/mL | 2 µg/mL | 2 µg/mL | 2 µg/mL | 2 µg/mL | 1024 µg/mL | 12 µg/mL | 8 µg/mL | 8 µg/mL | 8 µg/mL | 12 µg/mL | 12 µg/mL | 8 µg/mL | 12 µg/mL |  |  |
| NC[C@H]1O[C@H](O[C@H]2[C@H](O)[C@@H](O[C@H]3O[C@H](CO)[C@@H](O)[C@H](N)[C@H]3O)[C@H](N)C[C@@H]2N)[C@H](N)C[C@@H]1O [TOB] | 0.5 µg/mL | 4 µg/mL | >256 µg/mL | 8 µg/mL | 64 µg/mL | 0.5 µg/mL | 0.5 µg/mL | 1 µg/mL | >256 µg/mL | >256 µg/mL | 0.5 µg/mL | 0.5 µg/mL | 0.5 µg/mL | 2 µg/mL | 0.5 µg/mL | 0.5 µg/mL | 0.5 µg/mL | >256 µg/mL | 0.5 µg/mL |  |  |
| CCN[C@@H]1C[C@H](N)[C@@H](O[C@H]2OC(CN)=CC[C@H]2N)[C@H](O)[C@H]1O[C@H]1OC[C@](C)(O)[C@H](NC)[C@H]1O [NET] | 0.5 µg/mL | 4 µg/mL | 64 µg/mL | 8 µg/mL | 1 µg/mL | 0.5 µg/mL | 0.5 µg/mL | 0.5 µg/mL | >256 µg/mL | >256 µg/mL | 0.5 µg/mL | 1.5 µg/mL | 1.5 µg/mL | 1.5 µg/mL | 1.5 µg/mL | 1.5 µg/mL | 1.5 µg/mL | >256 µg/mL | 1.5 µg/mL |  |  |
| NCC[C@H](O)C(=O)N[C@@H]1C[C@H](N)[C@@H](O[C@H]2O[C@H](CN)[C@@H](O)[C@H](O)[C@H]2O)[C@H](O)[C@H]1O[C@H]1O[C@H](CO)[C@@H](O)[C@H](N)[C@H]1O [Amikacin] |  |  |  |  |  |  |  |  |  |  |  |  |  |  |  |  |  |  |  | 2 µg/mL (≈ 3.42 µM) | MIC ([3]; Δ35, ΔompK35 mutant): 2 µg/mL (≈ 3.42 µM); MIC ([3]; Δ35/36, ΔompK35/36 mutant): 2 µg/mL (≈ 3.42 µM); MIC ([3]; Δ36, ΔompK36 mutant): 2 µg/mL (≈ 3.42 µM); MIC ([3]; ΔramR mutant): 2 µg/mL (≈ 3.42 µM); MIC ([3]; ΔramRΔ35, ΔramRΔompK35 mutant): 2 µg/mL (≈ 3.42 µM); MIC [3, 19]: 2 µg/mL (≈ 3.42 µM); MIC ([3]; ΔramRΔ36, ΔramRΔompK36 mutant): 2 µg/mL (≈ 3.42 µM); susceptibility category ([1]; strains with different aminoglycoside-modifying enzymes): susceptible; effects on the MIC [2]: no increase effects |
| CCN[C@@H]1C[C@H](N)[C@@H](O[C@H]2OC(CN)=CC[C@H]2N)[C@H](O)[C@H]1O[C@H]1OC[C@](C)(O)[C@H](NC)[C@H]1O [Netilmicin] |  |  |  |  |  |  |  |  |  |  |  |  |  |  |  |  |  |  |  | 0.5 µg/mL (≈ 1.05 µM) | MIC ([3]; Δ35, ΔompK35 mutant): 0.5 µg/mL (≈ 1.05 µM); MIC ([3]; Δ35/36, ΔompK35/36 mutant): 0.5 µg/mL (≈ 1.05 µM); MIC ([3]; Δ36, ΔompK36 mutant): 0.5 µg/mL (≈ 1.05 µM); MIC ([3]; ΔramR mutant): 0.5 µg/mL (≈ 1.05 µM); MIC ([3]; ΔramRΔ35, ΔramRΔompK35 mutant): 0.25 µg/mL (≈ 0.526 µM); MIC [3, 19]: 0.5 µg/mL (≈ 1.05 µM); MIC ([3]; ΔramRΔ36, ΔramRΔompK36 mutant): 0.5 µg/mL (≈ 1.05 µM); effects on the MIC [2]: no increase effects |
